Patent publication US6861235B1, “Method for controlling target microorganism” (priority 1998, dated 2005)
“Also recorded” adds a separate entry of the source. Where two headings read alike, the source gives them in different places. Peptide text beside a SMILES is read from it.

Experiments:
NKR strain [1] = type: cell-based, Burkholderia sp. N16-1 strain
[2] = system: Ralstonia solanacearum OE1-1 strain; type: cell-based; settings: for cell count of the OE1-1 strain vs 0 ppm: Example 9; for control of R. solanacearum OE1-1 strain: Examples 9 and 10 summary, addition of 500 ppm or more
[3] = system: total cell count in the soil; type: cell-based
NKR strain [4] = type: cell-based, Burkholderia sp. N16-1 strain; settings: for cell count of the NKR strain in the soil vs no addition: pH-adjusted SB soil
[5] = system: R. solanacearum OE1-1 strain; type: in vivo, tomato; settings: 500 ppm D-serine-added contaminated soil
[6] = Biolog GN plate, compounds in parentheses showed slight color development
[7] = Example 7, SB soil, 5000 ppm substrate, D-serine metabolites
[8] = Example 5, 5000 ppm added after 5 days at 20° C.

| Compound | assimilation by the NKR strain (color development of an oxidation-reduction indicator) (NKR strain [1]; [6]) | other results |
| --- | --- | --- |
| CC(O)C(C)O (stereo not shown) [2,3-butanediol] | no color development | – |
| NCCO [ethanolamine] | slight color development | cell count of the OE1-1 strain vs 0 ppm ([2]; ethanolamine 500 ppm sequentially added or 1000 ppm or greater): decrease in the cell counts; cell count of the OE1-1 strain vs 0 ppm ([2]; one-time addition of 500 ppm ethanolamine): did not exhibit sufficient effects; control of R. solanacearum OE1-1 strain [2]: works to control; total cell count in the soil [3]: remained constant; cell count of the NKR strain vs control section (NKR strain [4]; [7]): markedly declined; also recorded: exhibited control effects |
| O=C(O)CCCO [γ-hydroxybutyric acid] | no color development | – |
| NCCC[C@H](N)C(=O)O [L-omithine] | slight color development | – |
| OC[C@H]1O[C@H](OC[C@H]2O[C@H](O[C@]3(CO)O[C@H](CO)[C@@H](O)[C@@H]3O)[C@H](O)[C@@H](O)[C@@H]2O)[C@H](O)[C@@H](O)[C@H]1O [D-raffinose] | no color development | – |
| OC[C@H]1O[C@H](O[C@H]2O[C@H](CO)[C@@H](O)[C@H](O)[C@H]2O)[C@H](O)[C@@H](O)[C@@H]1O [D-trehalose] | slight color development | – |
| OC[C@@H](O)[C@@H](O)CO [erythritol] | no color development | – |
| O=C(CO)[C@@H](O[C@H]1O[C@H](CO)[C@@H](O)[C@H](O)[C@H]1O)[C@H](O)[C@H](O)CO [turanose] | no color development | – |
| N[C@@H](CO)C(=O)O [L-serine] | slight color development | cell count of the NKR strain in the soil vs no addition (NKR strain [4]; [8]): remained almost constant; also recorded: almost no effect |
| COC1OC(CO)C(O)C(O)C1O [β-methyl-D-glucose] | no color development | – |
| NC(=O)[C@@H](O)[C@@H](O)[C@H](O)[C@@H](O)C=O [glucuronamide] | slight color development | – |
| O=P(O)(O)OCC(O)CO [D, L-α-glycerol phosphate] | no color development | – |
| OC[C@@H](O)[C@H](O)[C@@H](O)CO [xylitol] | no color development | – |
| C[C@@H](N)C(=O)O [D-α-alanine] | no color development | cell count of the NKR strain vs control section (NKR strain [4]; [7]): markedly declined; also recorded: exhibited control effects |
| C=C(CC(=O)O)C(=O)O [itaconic acid] | no color development | – |
| NCCCCN [putrescine] | slight color development | – |
| O=C[C@H](O)[C@@H](O)[C@H](O[C@@H]1O[C@H](CO)[C@@H](O)[C@H](O)[C@H]1O)[C@H](O)CO [cellobiose] | slight color development | – |
| C[C@@H](O)[C@H](N)C(=O)O [L-threonine] | slight color development | – |
| OC[C@H]1O[C@H](O[C@H]2[C@H](O)[C@@H](O)[C@H](O)O[C@@H]2CO)[C@H](O)[C@@H](O)[C@@H]1O [maltose] | no color development | – |
| OC[C@H]1O[C@@H](O[C@H]2[C@H](O)[C@@H](O)[C@@H](O)O[C@@H]2CO)[C@H](O)[C@@H](O)[C@H]1O [α-D-lactose] | slight color development | – |
| O=C(O)CCCCCCCCC(=O)O [sebacic acid] | slight color development | – |
| gentiobiose | – | assimilation by the NKR strain (color development of an oxidation-reduction indicator) (NKR strain [1]): no color development |
| CC(=O)O [acetic acid] | no color development | – |
| O=P(O)(O)O[C@H]1O[C@H](CO)[C@@H](O)[C@H](O)[C@H]1O [glucose-1-phosphate] | no color development | – |

| Compound | assimilation by the NKR strain (color development of an oxidation-reduction indicator) (NKR strain [1]; [6]) | other results |
| --- | --- | --- |
| glycogen | no color development | – |
| O=C(O)/C=C/c1c[nH]cn1 [urocanic acid] | slight color development | – |
| CCC(=O)O [propionic acid] | no color development | – |
| dextrin | no color development | – |
| O=C(CO)[C@H](O)[C@H](O)[C@H](O)CO [D-piscose] | slight color development | – |
| α-cyclodexrin | no color development | – |
| NCCc1ccccc1 [phenylethylamine] | no color development | – |
| N[C@H](CS)C(=O)O [D-cysteine] | – | cell count of the NKR strain vs control section (NKR strain [4]; [7]): markedly declined; also recorded: exhibited control effects |
| NC(CO)C(=O)O [D-serine, 2-amino-3-hydroxypropionic acid] | does not assimilate; also recorded: no color development | germination of tomato seeds ([5]; day 4 after sowing): germination of the tomato seeds was observed; growth of young tomato seedlings ([5]; no-addition seedlings all died except one by day 10): grew normally; cell count of the OE1-1 strain vs control ([2]; Example 8, field soil, 5000 ppm): declined markedly; cell count of the OE1-1 strain vs 0 ppm ([2]; field soil, D-serine 500, 1000, 2000 or 5000 ppm): a reduction in the cell count; control of R. solanacearum OE1-1 strain [2]: works to control; total cell count in the soil [3]: almost no changes were observed; cell count of the NKR strain in the soil vs no addition (NKR strain [4]; Example 4, 0.5% D-serine added after 2 days culture at 30° C.): markedly reduced; also recorded: markedly declined; also recorded: very effective; cell count of the NKR strain in the soil vs no addition (NKR strain [4]; [8]): markedly declined; also recorded: very effective; cell count of the NKR strain vs control section (NKR strain [4]; Example 6, 5000 ppm, Kuroboku (black) soil A (field soil)): no effects were observed; cell count of the NKR strain vs control section (NKR strain [4]; Example 6, 5000 ppm, Kuroboku (black) soil B, sandy soils A, B, C, D (all soils excluding Kuroboku soil A)): markedly declined |
| O=C(O)CC(=O)O [malonic acid] | slight color development | – |
| CCC(O)C(=O)O (stereo not drawn) [α-hydroxybutyric acid] | slight color development | – |
| N[C@@H](CC(=O)O)C(=O)O [L-aspartic acid] | slight color development | – |
| O=C[C@H](O)[C@@H](O)[C@H](O)[C@H](O)COP(=O)(O)O [glucose-6-phosphate] | slight color development | – |
| NC(CO)C(=O)O (racemic) [DL-serine] | – | cell count of the NKR strain in the soil vs no addition (NKR strain [4]; [8]): the effect of cell count control can be observed though the degree of reduction is small |
| O=c1ccn([C@@H]2O[C@H](CO)[C@@H](O)[C@H]2O)c(=O)[nH]1 [uridine] | slight color development | – |
| C[C@H](N)C(N)=O [alanine amide] | slight color development | – |
| CCC(=O)C(=O)O [α-ketobutyric acid] | slight color development | – |
| CC(=O)C(=O)O [pyruvic acid] | – | cell count of the NKR strain vs control section (NKR strain [4]; [7]): markedly declined; also recorded: exhibited control effects |
| COc1ccc2nccc(C(=O)O)c2c1 [quininic acid] | slight color development | – |
| Cc1cn([C@H]2C[C@H](O)[C@@H](CO)O2)c(=O)[nH]c1=O [thymidine] | no color development | – |
| NCC(=O)N[C@@H](CC(=O)O)C(=O)O [glycyl-L-aspartic acid] (H-Gly-Asp-OH) | no color development | – |
| O=C(O)[C@@H](O)[C@@H](O)[C@H](O)[C@@H](O)C(=O)O [D-saccharic acid] | slight color development | – |
| O=C(O)CCC(=O)C(=O)O [α-ketoglutaric acid] | slight color development | – |
